Experimental data: US12174198B2, “Methods of characterizing condensate-associated characteristics of compounds and uses thereof” (Dewpoint Therapeutics, Inc., priority 2019, dated 2024)

Assays:
Assay type in all cases: physicochemical
PGL-3 condensates = biological target: T1, PGL-3 condensates (Caenorhabditis elegans, UniProt G5EBV6); experiment: Fluorescence imaging of dye partitioning in PGL-3 condensates (I-in, I-out); conditions: for Ratio of intensity inside:outside PGL-3 Condensates Day 1 / Ratio of intensity inside:outside PGL-3 Condensates Day 2 / Ratio of intensity inside:outside PGL-3 Condensates Average: I-in:I-out; for Ratio of intensity inside:outside PGL-3 Condensates Day 1 / Ratio of intensity inside:outside PGL-3 Condensates Day 2 / Ratio of intensity inside:outside PGL-3 Condensates Average / Intensity Inside with Dye Average / Intensity Inside with Dye 1 / Intensity Inside with Dye 2 / Intensity Inside with Dye 3 / Intensity Outside with Dye Average / Intensity Outside with Dye 1 / Intensity Outside with Dye 2 / Intensity Outside with Dye 3: 10 μM dye; for Ratio of intensity inside:outside PGL-3 Condensates Average: average of two days; for Intensity Inside with Dye Average / Intensity Inside with Dye 1 / Intensity Inside with Dye 2 / Intensity Inside with Dye 3 / Intensity Inside Dye-No Dye: inside PGL-3 condensate; for Intensity Inside with Dye Average / Intensity Inside with Dye 1 / Intensity Inside with Dye 2 / Intensity Inside with Dye 3 / Intensity Outside with Dye Average / Intensity Outside with Dye 1 / Intensity Outside with Dye 2 / Intensity Outside with Dye 3: 5 μM protein; for Intensity Inside with Dye Average / Intensity Outside with Dye Average: average of three images; for Intensity Inside with Dye Average / Intensity Inside with Dye 1 / Intensity Inside with Dye 2 / Intensity Inside with Dye 3 / Intensity Inside Dye-No Dye / Intensity Outside with Dye Average / Intensity Outside with Dye 1 / Intensity Outside with Dye 2 / Intensity Outside with Dye 3 / Intensity Outside (Dye-No Dye): one day of experiments; for Intensity Inside with Dye 1 / Intensity Outside with Dye 1: image 1; for Intensity Inside with Dye 2 / Intensity Outside with Dye 2: image 2; for Intensity Inside with Dye 3 / Intensity Outside with Dye 3: image 3; for Intensity Inside Dye-No Dye / Intensity Outside (Dye-No Dye): background corrected; for Intensity Outside with Dye Average / Intensity Outside with Dye 1 / Intensity Outside with Dye 2 / Intensity Outside with Dye 3 / Intensity Outside (Dye-No Dye): outside PGL-3 condensate
T1 sequence (G5EBV6 1-693): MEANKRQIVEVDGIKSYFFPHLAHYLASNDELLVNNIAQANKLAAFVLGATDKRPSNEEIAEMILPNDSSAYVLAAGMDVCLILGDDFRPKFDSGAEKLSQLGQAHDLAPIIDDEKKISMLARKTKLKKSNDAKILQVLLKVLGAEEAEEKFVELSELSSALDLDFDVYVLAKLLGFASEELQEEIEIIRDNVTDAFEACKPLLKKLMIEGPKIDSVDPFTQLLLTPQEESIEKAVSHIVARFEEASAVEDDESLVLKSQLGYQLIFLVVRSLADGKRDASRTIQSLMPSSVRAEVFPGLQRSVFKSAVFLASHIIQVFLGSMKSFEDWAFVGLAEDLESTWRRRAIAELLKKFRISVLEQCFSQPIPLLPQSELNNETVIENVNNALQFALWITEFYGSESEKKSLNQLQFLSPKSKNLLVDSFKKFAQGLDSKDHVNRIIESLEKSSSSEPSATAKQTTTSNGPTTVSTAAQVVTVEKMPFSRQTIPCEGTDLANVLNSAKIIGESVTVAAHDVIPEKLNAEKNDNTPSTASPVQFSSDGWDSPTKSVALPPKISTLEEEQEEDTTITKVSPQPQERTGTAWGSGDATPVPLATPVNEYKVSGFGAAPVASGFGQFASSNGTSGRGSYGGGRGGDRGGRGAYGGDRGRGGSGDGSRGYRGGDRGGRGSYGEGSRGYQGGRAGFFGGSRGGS
How it was run: (§1)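 Partitioning read by spinning-disk confocal imaging (60× oil, dye-specific exposure 1-1000 ms) of condensates formed from 5 μM protein (FUS-SNAP or untagged PGL-3) plus 10 μM dye, 75 mM KCl, 1% DMSO, pH 7.25. Background-subtracted intensities inside and beside one condensate per image, three images averaged.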

FUS-SNAP condensates = biological target: T2, FUS-SNAP condensates (Homo sapiens, UniProt P35637); experiment: Fluorescence imaging of dye partitioning in FUS-SNAP condensates (I-in, I-out); conditions: for Ratio of intensity inside:outside FUS-SNAP Condensates Day 1 / Ratio of intensity inside:outside FUS-SNAP Condensates Day 2 / Ratio of intensity inside:outside FUS-SNAP Condensates Average: I-in:I-out; for Ratio of intensity inside:outside FUS-SNAP Condensates Day 1 / Ratio of intensity inside:outside FUS-SNAP Condensates Day 2 / Ratio of intensity inside:outside FUS-SNAP Condensates Average / Intensity Inside with Dye Average / Intensity Inside with Dye 1 / Intensity Inside with Dye 2 / Intensity Inside with Dye 3 / Intensity Outside with Dye Average / Intensity Outside with Dye 1 / Intensity Outside with Dye 2 / Intensity Outside with Dye 3: 10 μM dye; for Ratio of intensity inside:outside FUS-SNAP Condensates Average: average of two days; for Intensity Inside with Dye Average / Intensity Inside with Dye 1 / Intensity Inside with Dye 2 / Intensity Inside with Dye 3 / Intensity Inside Dye-No Dye: inside FUS-SNAP condensate; for Intensity Inside with Dye Average / Intensity Inside with Dye 1 / Intensity Inside with Dye 2 / Intensity Inside with Dye 3 / Intensity Outside with Dye Average / Intensity Outside with Dye 1 / Intensity Outside with Dye 2 / Intensity Outside with Dye 3: 5 μM protein; for Intensity Inside with Dye Average / Intensity Outside with Dye Average: average of three images; for Intensity Inside with Dye Average / Intensity Inside with Dye 1 / Intensity Inside with Dye 2 / Intensity Inside with Dye 3 / Intensity Inside Dye-No Dye / Intensity Outside with Dye Average / Intensity Outside with Dye 1 / Intensity Outside with Dye 2 / Intensity Outside with Dye 3 / Intensity Outside (Dye-No Dye): one day of experiments; for Intensity Inside with Dye 1 / Intensity Outside with Dye 1: image 1; for Intensity Inside with Dye 2 / Intensity Outside with Dye 2: image 2; for Intensity Inside with Dye 3 / Intensity Outside with Dye 3: image 3; for Intensity Inside Dye-No Dye / Intensity Outside (Dye-No Dye): background corrected; for Intensity Outside with Dye Average / Intensity Outside with Dye 1 / Intensity Outside with Dye 2 / Intensity Outside with Dye 3 / Intensity Outside (Dye-No Dye): outside FUS-SNAP condensate
T2 sequence (P35637 1-526): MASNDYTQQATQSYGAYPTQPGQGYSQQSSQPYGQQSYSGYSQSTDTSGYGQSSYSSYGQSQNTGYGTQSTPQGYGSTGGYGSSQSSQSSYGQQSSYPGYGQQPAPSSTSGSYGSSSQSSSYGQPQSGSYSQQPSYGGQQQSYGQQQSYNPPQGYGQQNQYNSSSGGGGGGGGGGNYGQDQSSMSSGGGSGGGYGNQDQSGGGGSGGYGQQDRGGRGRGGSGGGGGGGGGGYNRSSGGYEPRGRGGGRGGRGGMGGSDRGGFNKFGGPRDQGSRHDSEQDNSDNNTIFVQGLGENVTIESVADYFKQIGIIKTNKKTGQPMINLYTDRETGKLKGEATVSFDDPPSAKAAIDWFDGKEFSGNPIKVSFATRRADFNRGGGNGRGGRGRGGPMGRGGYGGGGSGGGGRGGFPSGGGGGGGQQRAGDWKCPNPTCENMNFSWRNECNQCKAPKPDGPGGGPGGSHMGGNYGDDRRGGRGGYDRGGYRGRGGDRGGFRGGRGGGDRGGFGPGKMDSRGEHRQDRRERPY
How it was run: as §1

[1] = system: FUS-SNAP condensates versus PGL-3 condensates; experiment: Condensate preference: ratio of FUS-SNAP I-in:I-out to PGL-3 I-in:I-out; conditions: average FUS-SNAP I-in:I-out divided by average PGL-3 I-in:I-out
How it was run: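 Values compare FUS-SNAP against PGL-3 condensates through their I-in:I-out ratios. Each ratio is the average intensity within the condensates over that outside them, averaged across two separate days.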

Ratio of intensity inside:outside PGL-3 Condensates Day 1 (PGL-3 condensates) | Ratio of intensity inside:outside PGL-3 Condensates Day 2 (PGL-3 condensates) | Ratio of intensity inside:outside PGL-3 Condensates Average (PGL-3 condensates) | Intensity Inside with Dye Average (PGL-3 condensates) | Intensity Inside with Dye 1 (PGL-3 condensates) | Intensity Inside with Dye 2 (PGL-3 condensates) | Intensity Inside with Dye 3 (PGL-3 condensates) | Intensity Inside Dye-No Dye (PGL-3 condensates) | Intensity Outside with Dye Average (PGL-3 condensates) | Intensity Outside with Dye 1 (PGL-3 condensates) | Intensity Outside with Dye 2 (PGL-3 condensates) | Intensity Outside with Dye 3 (PGL-3 condensates) | Intensity Outside (Dye-No Dye) (PGL-3 condensates) | Ratio of intensity inside:outside FUS-SNAP Condensates Day 1 (FUS-SNAP condensates) | Ratio of intensity inside:outside FUS-SNAP Condensates Day 2 (FUS-SNAP condensates) | Ratio of intensity inside:outside FUS-SNAP Condensates Average (FUS-SNAP condensates) | Intensity Inside with Dye Average (FUS-SNAP condensates) | Intensity Inside with Dye 1 (FUS-SNAP condensates) | Intensity Inside with Dye 2 (FUS-SNAP condensates) | Intensity Inside with Dye 3 (FUS-SNAP condensates) | Compound | other results
1.0 | 1.0 | 1.0 | 4402.0 | 4585.4 | 4501.5 | 4119.2 | 4255.5 | 4166.2 | 4395.6 | 4190.8 | 3912.1 | 4060.8 | 1.7 | 1.4 | 1.5 | 6277.1 | 6328.8 | 6300.8 | 6201.7 | O=C1OC2(c3ccc(O)cc3Oc3cc(O)ccc32)c2ccccc21 [Dye 6, Fluorescein] | Intensity Inside Dye-No Dye (FUS-SNAP condensates): 6141.9; Intensity Outside with Dye Average (FUS-SNAP condensates): 3784.7; Intensity Outside with Dye 1 (FUS-SNAP condensates): 3771.1; Intensity Outside with Dye 2 (FUS-SNAP condensates): 3840.2; Intensity Outside with Dye 3 (FUS-SNAP condensates): 3742.7; Intensity Outside (Dye-No Dye) (FUS-SNAP condensates): 3680.6; Ratio of FUS-SNAP:PGL-3 [1]: 1.5
1.1 | 1.1 | 1.1 | 2877.7 | 2874.7 | 2858.2 | 2900.3 | 2731.2 | 2596.6 | 2628.3 | 2616.4 | 2545.0 | 2491.2 | 1.3 | 1.4 | 1.3 | 2970.4 | 3123.1 | 2956.9 | 2831.2 | COC(=O)c1ccccc1-c1c2ccc(=N)cc-2oc2cc(N)ccc12.Cl [Dye 14, Rhodamine 123] | Intensity Inside Dye-No Dye (FUS-SNAP condensates): 2835.2; Intensity Outside with Dye Average (FUS-SNAP condensates): 2277.6; Intensity Outside with Dye 1 (FUS-SNAP condensates): 2174.8; Intensity Outside with Dye 2 (FUS-SNAP condensates): 2322.7; Intensity Outside with Dye 3 (FUS-SNAP condensates): 2335.1; Intensity Outside (Dye-No Dye) (FUS-SNAP condensates): 2173.5; Ratio of FUS-SNAP:PGL-3 [1]: 1.2
